From patent publication US20230233555A1 (AbbVie Inc., priority 2022, published 2023)
“Also recorded” adds a separate entry of the source.

Assays:
[1] = system: patients with rheumatoid arthritis; conditions: in vivo
Excerpt: (§2) Exposure adjusted incidence rates were adjusted by trial for all the adverse events reported in this section.
(§3) Patients 18 years of age and older were eligible to participate. The presence of at least 6 tender and 6 swollen joints and evidence of systemic inflammation based on elevation of hsCRP was required at baseline.

[2] = Model-estimated and predicted upadacitinib Cmax and AUCss in UC patients with severe renal impairment; parameters: species or system human; conditions: for Predicted Cmax in UC Patients with Severe Renal Impairment based on results from M13-551, Median: model-estimated value multiplied by 1.14; for Predicted AUCss in UC Patients with Severe Renal Impairment based on results from M13-551, Median: model-estimated value multiplied by 1.44
Method: Therefore, it is recommended that the induction dose is reduced in UC patients with severe renal impairment to 30 mg QD.
Therefore, it is recommended that the maintenance dose is reduced in UC patients with severe renal impairment to 15 mg QD.

[3] = Milk excretion in lactating rats; format: in vivo, rat; conditions: female, Sprague-Dawley, rat, milk (relative to maternal plasma); single oral 10 mg/kg radiolabeled, post-partum days 7-8; read-out: Drug exposure in milk vs maternal plasma (AUC0-t)
Excerpt: (§1) Drug exposure was approximately 30-fold greater in milk than in maternal plasma based on AUC0-t values. Approximately 97% of drug-related material in milk was parent drug.

[4] = system: lactating female Sprague-Dawley rats; experiment: Milk excretion in lactating rats; format: in vivo, rat; conditions: single oral 10 mg/kg radiolabeled
Excerpt: as §1

clinical = conditions: human, in vivo
pregnant rats = experiment: Oral embryo-fetal development studies in rats
CYP3A4 = CYP3A4 (Homo sapiens, UniProt P08684); experiment: In vitro metabolism / substrate assessment, CYP3A4; format: in vitro ADME
Chain of CYP3A4 (P08684 whole entry): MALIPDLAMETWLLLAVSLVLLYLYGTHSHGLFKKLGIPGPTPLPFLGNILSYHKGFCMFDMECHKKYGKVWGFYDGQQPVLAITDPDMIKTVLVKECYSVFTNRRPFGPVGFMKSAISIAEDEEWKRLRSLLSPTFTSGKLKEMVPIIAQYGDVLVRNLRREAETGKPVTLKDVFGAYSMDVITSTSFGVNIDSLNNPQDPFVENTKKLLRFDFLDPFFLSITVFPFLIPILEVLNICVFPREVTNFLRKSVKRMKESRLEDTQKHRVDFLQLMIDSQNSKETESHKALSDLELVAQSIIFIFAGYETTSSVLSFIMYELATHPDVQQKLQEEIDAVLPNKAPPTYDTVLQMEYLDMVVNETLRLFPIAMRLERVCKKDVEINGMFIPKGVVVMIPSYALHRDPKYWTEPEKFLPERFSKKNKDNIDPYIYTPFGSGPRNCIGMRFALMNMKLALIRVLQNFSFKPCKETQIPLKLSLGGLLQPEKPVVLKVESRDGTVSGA

[5] = Renal impairment pharmacokinetic study (Study M13-551); format: in vivo, human
Method: Renal clearance indicates some involvement of renal transporters in the excretion. Renal secretion is however not estimated to contribute to more than 25% of the elimination. […] As used herein, reference to “severe renal impairment” means a creatinine clearance of less than 30 mL/min.
This may increase the risk of adverse reactions; therefore, dosage modification in patients with severe renal impairment is recommended.

[6] = system: patients with moderately to severely active rheumatoid arthritis, naive to MTX; experiment: Trial RA-I (NCT02706873); format: in vivo, human; conditions: RA-I through Week 24; 30 mg
Method: The primary endpoint was the proportion of patients who achieved an ACR50 response at Week 12. Key secondary endpoints included disease activity score (DAS28-CRP) ≤3.2 at Week 12, DAS28-CRP <2.6 at Week 24, change from baseline in HAQ-DI at Week 12, and change from baseline in van der Heijde-modified total Sharp Score (mTSS) at Week 24.
Inhibition of progression of structural joint damage was assessed using the modified Total Sharp Score (mTSS) and its components, the erosion score and joint space narrowing score, at Week 26 in Trial RA-IV and Week 24 in Trial RA-I. The proportion of patients with no radiographic progression (mTSS change from baseline […]) was also assessed.

[7] = system: patients with rheumatoid arthritis; experiment: Rheumatoid arthritis Phase 3 trials, integrated datasets (RA-I to RA-V)
Excerpt: as §2, §3

[8] = Model-estimated and predicted upadacitinib Cmax and AUCss in UC patients with co-administration of strong CYP3A4 inhibitors; parameters: species or system human; conditions: for Predicted Median Cmax in UC Patients with Strong CYP3A4 inhibitors based on results from M13-401: model-estimated value multiplied by 1.7; for Predicted AUCss in UC Patients with Strong CYP3A4 inhibitors based on results from M13-401, Median: model-estimated value multiplied by 1.75
Excerpt: The data from Study M13-401 are provided in Table 38 and Table 39, which show the expected increase in Cmax and AUCss, respectively, in patients with UC across all dose levels with co-administration of CYP3A4 inhibitors.

[9] = 12-month exposure dataset (RA-I, II, III, V), 30 mg
[10] = MTX-controlled RA-I and RA-II, 12/14 weeks, 30 mg monotherapy
[11] = RA-III and RA-V placebo-controlled, 12 weeks, 30 mg

## CC[C@@H]1CN(C(=O)NCC(F)(F)F)C[C@@H]1c1cnc2cnc3[nH]ccc3n12 [upadacitinib, (3S,4R)-3-Ethyl-4-(3H-imidazo[1,2-a]pyrrolo[2,3-e]pyrazin-8-yl)-N-(2,2,2-trifluoroethyl)pyrrolidine-1-carboxamide hydrate (2:1)]
[1]
  Hemoglobin decreases below 8 g/dL in at least one measurement, patients: none
  Lipid changes with treatment: dose-related increases in total cholesterol, triglycerides and LDL cholesterol
  Time of peak elevations in LDL and HDL cholesterol: ≤ 8 Week
[2]; 7.5 mg treatment group
  Predicted Cmax in UC Patients with Severe Renal Impairment based on results from M13-551, Median: 23.0 ng/mL
  Predicted AUCss in UC Patients with Severe Renal Impairment based on results from M13-551, Median: 232 ng·h/mL
[2]; 15 mg treatment group
  Predicted Cmax in UC Patients with Severe Renal Impairment based on results from M13-551, Median: 47.1 ng/mL
  Predicted AUCss in UC Patients with Severe Renal Impairment based on results from M13-551, Median: 492 ng·h/mL
[2]; 30 mg treatment group
  Predicted Cmax in UC Patients with Severe Renal Impairment based on results from M13-551, Median: 89.5 ng/mL
  Predicted AUCss in UC Patients with Severe Renal Impairment based on results from M13-551, Median: 940 ng·h/mL
[2]; 45 mg treatment group
  Predicted Cmax in UC Patients with Severe Renal Impairment based on results from M13-551, Median: 138 ng/mL
  Predicted AUCss in UC Patients with Severe Renal Impairment based on results from M13-551, Median: 1431 ng·h/mL
[3]
  Kp: ~30
[4]
  Parent drug share of drug-related material in milk: Approximately 97%
clinical
  half-life: 8 to 14 h
clinical; po
  Tmax: 2 to 4 h
Pregnant rats; AUC basis, 75 mg/kg/day
  Exposure multiple with additional skeletal malformations and decreased fetal body weights, no maternal toxicity: approximately 48 times the MRHD of 30 mg
Pregnant rats; GD 6 to 17, AUC basis, 5 mg/kg/day and higher
  Exposure multiple with teratogenicity (misshapen humerus, bent scapula): ≥ 1.0 times the MRHD of 30 mg
Pregnant rats; oral
  Exposure multiple with developmental toxicity (skeletal malformations, decreased fetal body weights): ≥ 2 times the 15 mg dose
Pregnant rats; oral, organogenesis
  Exposure multiple with no developmental toxicity: approximately 0.3 times the 15 mg dose
CYP3A4
  Substrate of / metabolised by CYP3A4: substrate; also recorded: mediated by mainly CYP3A4; also recorded: metabolized in vitro by CYP3A4
[5]; in vivo
  Cmax, impaired vs normal renal function: similar
  Contribution of the renal route to elimination: approximately 25%
[5]; mild renal impairment
  AUCinf higher vs normal renal function: 18%
[5]; moderate renal impairment
  AUCinf higher vs normal renal function: 33%
[5]; severe renal impairment
  AUCinf higher vs normal renal function: 44%
[5]; severe renal impairment, Study M13-551
  Cmax higher vs normal renal function: 14%
[6]
  Arterial thrombosis, number of patients: 1 patient
  Venous thrombosis, number of patients: 1 patient
[7]; [9]
  Opportunistic infections (excluding tuberculosis), number of patients: 15 patients
  Opportunistic infections (excluding tuberculosis), rate: 1.4 per 100 patient-years
[7]; 12-month exposure dataset, 30 mg
  Active tuberculosis, number of patients: 1 patient
[7]; [10]
  Opportunistic infections (excluding tuberculosis), number of patients: 4 patients
  Opportunistic infections (excluding tuberculosis), rate: 3.2 per 100 patient-years
[7]; RA MTX-controlled period, 30 mg monotherapy
  Active tuberculosis cases: no active cases
[7]; RA patients, controlled period
  Change in mean IgG and IgM levels from baseline: small decreases
[7]; RA patients, up to Week 36
  Change in mean ALC from baseline: small, transient increase
[7]; RA placebo-controlled period, 30 mg
  Active tuberculosis cases: no active cases
[7]; [11]
  Opportunistic infections (excluding tuberculosis), number of patients: 6 patients
  Opportunistic infections (excluding tuberculosis), rate: 7.1 per 100 patient-years
[8]; 7.5 mg treatment group
  Predicted Median Cmax in UC Patients with Strong CYP3A4 inhibitors based on results from M13-401: 34.3 ng/mL
  Predicted AUCss in UC Patients with Strong CYP3A4 inhibitors based on results from M13-401, Median: 282 ng·h/mL
[8]; 15 mg treatment group
  Predicted Median Cmax in UC Patients with Strong CYP3A4 inhibitors based on results from M13-401: 70.2 ng/mL
  Predicted AUCss in UC Patients with Strong CYP3A4 inhibitors based on results from M13-401, Median: 599 ng·h/mL
[8]; 30 mg treatment group
  Predicted Median Cmax in UC Patients with Strong CYP3A4 inhibitors based on results from M13-401: 133 ng/mL
  Predicted AUCss in UC Patients with Strong CYP3A4 inhibitors based on results from M13-401, Median: 1143 ng·h/mL
[8]; 45 mg treatment group
  Predicted Median Cmax in UC Patients with Strong CYP3A4 inhibitors based on results from M13-401: 206 ng/mL
  Predicted AUCss in UC Patients with Strong CYP3A4 inhibitors based on results from M13-401, Median: 1740 ng·h/mL
